From ChEMBL document CHEMBL2169860, “Design of a hypoxia-activated prodrug inhibitor of O6-alkylguanine-DNA alkyltransferase” (Bioorg Med Chem Lett, 2012)
Activity calls are given as the source filed them. The calls are words filed in the database; no cut-off is given here.

Experiments:
EMT6 [1] = assay: Cytotoxicity against mouse EMT6 cells expressing human AGT assessed as cell survival fraction at 2 uM after 18 hrs by clonogenic assay; format: cell-based; details: emt6, 18 h
EMT6 [2] = assay: Prodrug activation in mouse EMT6 cells assessed as 6-((3-((dimethylamino)methyl)benzyl)oxy)-9H-purin-2-amine level under hypoxic condition at 200 uM after 1 hr by HPLC analysis; format: cell-based; details: emt6, 1 h
EMT6 [3] = assay: Prodrug activation in mouse EMT6 cells assessed as 6-((3-((dimethylamino)methyl)benzyl)oxy)-9H-purin-2-amine level under oxic condition at 200 uM after 1 hr by HPLC analysis; format: cell-based; details: emt6, 1 h
EMT6 [4] = assay: Potentiation of laromustine-induced cytotoxicity against mouse EMT6 cells expressing human AGT assessed as cell survival fraction at 2 uM treated 2 hrs before laromustine addition measured after 18 hrs by clonogenic assay; format: functional, cell-based
[5] = target: T1, Methylated-DNA--protein-cysteine methyltransferase (Homo sapiens, UniProt P16455)
T1 sequence (P16455 whole entry): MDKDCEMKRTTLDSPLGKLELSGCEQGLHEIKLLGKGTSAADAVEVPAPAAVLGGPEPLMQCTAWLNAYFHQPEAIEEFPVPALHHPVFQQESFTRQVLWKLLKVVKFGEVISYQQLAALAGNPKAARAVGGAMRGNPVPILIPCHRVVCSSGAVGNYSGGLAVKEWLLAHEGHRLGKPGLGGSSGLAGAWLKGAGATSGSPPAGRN
Description: Inhibition of AGT in human HL60 cells assessed as AGT levels using [3H]AGT after 2 hrs

EMT6 [6] = assay: Stability of the compound in mouse EMT6 cells assessed as parent compound level under hypoxic condition at 200 uM after 1 hr by HPLC analysis; format: ADME, cell-based; details: emt6, 1 h
EMT6 [7] = assay: Stability of the compound in mouse EMT6 cells assessed as parent compound level under oxic condition at 200 uM after 1 hr by HPLC analysis; format: ADME, cell-based; details: emt6, 1 h

SMILES | Activity (EMT6 [1]) | Activity (EMT6 [4]) | IC50 [5] [nM] | further results
Nc1nc(OCc2ccccc2)c2[nH]cnc2n1 [6-O-BENZYLGUANINE] | Non-toxic |  |  | 
CN(C)Cc1cccc(COc2nc(NC(=O)OC(C)(C)c3ccc([N+](=O)[O-])cc3)nc3[nH]cnc23)c1 |  |  |  | Drug metabolism (EMT6 [2]): 149.6 µM; Drug metabolism (EMT6 [3]): 195.5 µM
Nc1nc(OCc2ccccc2)c2nc[nH]c2n1 |  | Active |  | 
CC(=O)NCc1cccc(COc2nc(N)nc3[nH]cnc23)c1 | Non-toxic | Active | 86 | 
CN(C)Cc1cccc(COc2nc(N)nc3[nH]cnc23)c1 | Non-toxic | Active | 25 | Stability (EMT6 [6]): 12.3 µM; Stability (EMT6 [7]): 0.2 µM
NCc1cccc(COc2nc(N)nc3nc[nH]c23)c1 | Non-toxic | Active |  | 
